Test results taken from US20260137697A1, “THIAZOLO[5,4-D]PYRIMIDINE COMPOUNDS, COMPOSITIONS COMPRISING THEM AND USES THEREOF” (University de Montreal, priority 2022, published 2026).
Read-outs that look alike come from different tables or passages of the source.

How the values were obtained:
Format in all cases: cell-based, human
NCIH1755 cells = assay: Proliferation inhibition, CellTiter-Glo, NCIH1755; conditions: Table D-2, NCIH1755 (BRAF G469A), 3 days, read-out: Prolif. (proliferation EC50)
Protocol: (§1) All cancer cell lines (A375, A101D, A2058, RKO, HT29 SK-MEL 30, IPC298, HepG2, HCT-116, Lovo, SW620, SW480, NCI-H358, NCI-H2122, Calu-6, NCIH2087, NCIH1755, NCIH1666 and Mewo) were obtained from ATCC and cultured in RPM1-1640 medium (Gibco) supplemented with 5% heat inactivated fetal bovine serum (FBS, Wisent) at 37° C. under 5% CO2. Cells were maintained in T175 flasks (Greiner). They were passaged by removing the culture medium, washing once in 10 mL of room temperature Phosphate Buffered Saline (PBS; Wisent) and incubating at 37° C. with 2 mL of 0.05% Trypsin (Thermo-Fisher). Trypsin was then inactivated by adding complete growth medium and the cells were then replated in a T175 culture dish at the appropriate dilution. All cell lines were routinely tested for mycoplasma contamination. Tissue type and mutational status of each cell line can be found in Table B.
(§2) CellTiter-Glo® viability analysis was conducted on cells plated in 100 μL of complete RPMI-1640 growth medium in 96-well flat-bottomed white opaque plates (Greiner or Croning) at a density indicated in Table E (for each CCL, number of cells plated per well of a 96-well plate to perform the CellTiter-Glo® cell viability assay). The cell density in cells/cm^2 would correspond to cell number divided by the area of one well of a 96-well plate (0.32 cm^2). […]
(§3) After 3 days of incubation, the growth media were removed by aspiration and 60 μL of diluted CellTiter-Glo® reagent (10 μL CellTiter-Glo® reagent+50 μL of PBS) was added to each well. […] Luminescence signals were then acquired on a Synergy Neo2 plate reader (Biotek).
(§4) The effect of each compound dilution on the proliferation of cancer cell lines was expressed in % inhibition and calculated as follows. […]
(§5) The ability of each compound to inhibit proliferation was expressed as a EC50 value obtained by plotting the effect values for each data point of a dilution series and fitting the obtained curves using a log(agonist) versus response—variable slope (four parameters) function using GraphPadPrism (V7.0) or Dotmatics Screening Ultra platform.

NCI-H2122 cells = assay: Proliferation inhibition, CellTiter-Glo, NCI-H2122; conditions: Table D-2, NCI-H2122 (KRAS-G12C), 3 days, read-out: Prolif. (proliferation EC50)
Protocol: as §1, §2, §3, §4, §5

SW620 cells = assay: Proliferation inhibition, CellTiter-Glo, SW620; conditions: Table D-2, SW620 (KRAS-G12V), 3 days, read-out: Prolif. (proliferation EC50)
Protocol: as §1, §2, §3, §4, §5

Row | SMILES | EC50 (NCIH1755 cells; Homo sapiens, NCI-H1755, 72 h) [µM] | EC50 (NCI-H2122 cells; Homo sapiens, 72 h) [µM] | EC50 (SW620 cells; Homo sapiens, SW-620, 72 h) [µM] | EC50 (NCIH1755 cells) [µM] | EC50 (NCI-H2122 cells) [µM] | EC50 (SW620 cells) [µM]
1 | Cc1ccc2c(Nc3cccc(Cl)c3F)nccc2c1NC(=O)c1csc2c(N)ncnc12 [Belvarafenib, reference compound] | > 3 | 0.3 to 3 | 0.3 to 3 | – | – | –
2 | Cc1c(F)cccc1S(=O)(=O)Nc1ccc(F)c(Nc2ncnc3sc(-n4cc(C(=O)N5C6CCC5CN(C)C6)c5ccccc54)nc23)c1F [Example 44] | – | – | – | < 0.3 | < 0.3 | < 0.3
3 | N#CC1(c2cccc3c2ncn3-c2nc3c(Nc4c(F)ccc(NS(=O)(=O)c5cccc(Cl)c5Cl)c4F)ncnc3s2)CC1 [Example 122] | – | – | – | < 0.3 | 0.3 to 3 | < 0.3
